Values quoted from earlier work as cited in patent US20230405034A1, “FORMULATION OF IVERMECTIN IN SOFT GELATIN CAPSULES” (PROCAPS S.A., priority 2020, published 2023).

How the values were obtained:
[1] = in vivo; cited from earlier work
[2] = test system: pseudorabies DNA virus (PRV); conditions: ivermectin treatment; cited from earlier work
[3] = cited from earlier work
[4] = test system: SARS-CoV-2; conditions: SARS-CoV-2 in vitro, after 48 hours; cited from earlier work

Row | Substance | plasma half-life [1] | survival in PRV-infected mice [2] | solubility in water [3] | reduction in viral RNA [4]
1 | medium chain triglycerides | approximately 17 minutes | – | – | –
2 | Ivermectin | – | increases survival | practically insoluble in water | approximately 5,000 fold
